Experimental findings from patent publication US9174984B2, “Chemical compounds” (GlaxoSmithKline Intellectual Property (No. 2) Limited, priority 2011, dated 2015) are described below.

“And” between values parts separate entries of the source, which are not always exact repeats. Equal entries are not always repeated. Where two headings read alike, the source gives them in different places.

Test [1] concerns the target T1, Human full-length DNMT1 (Homo sapiens, UniProt P26358).
T1 construct: Human full-length DNMT1 enzyme purchased from BPS Biosciences; purchased BPS Biosciences
The test can be described thus: DNMT inhibition assay (3H-SAM filter-binding) against DNMT1. It is filed as biochemical.

Test [2] concerns the target T2, Human DNMT3b/3L (Homo sapiens, UniProt Q9UBC3).
T2 construct: truncated 3b (catalytic domain)
Briefly: DNMT inhibition assay (3H-SAM filter-binding) against DNMT3b/3L. The conditions noted are these: read-out: IC50 against DNMT 3b/3L. The format is biochemical. Here is the method: DNMT Assays Used for Examples 1-114
Human DNMT3b/3L was coexpressed using truncated 3b (catalytic domain) and 3L (DNA binding domain) at GSK. Human full-length DNMT1 enzyme purchased from BPS Biosciences. Poly(dIdC) DNA (Sigma) was used at 0.002 mg/mL. Tritiated SAM (Perkin Elmer) was used at 500 nM. DNA, DNMT enzyme, and inhibitors were mixed with assay buffer (20 mM Tris pH8, 5% glycerol, 1 mM EDTA, 100 μg/mL BSA, 1 mM DTT, 50 mM NaCl) and pre-incubated without SAM for 30 min. H3 SAM was then added to initiate the methylation reaction which continues at 37° C. for 1 h. Reaction mixture was then transferred to a filter plate (Millipore Multiscreen HTS DE), then washed with 50 mM H2PO4 and 95% Ethanol. Scintillation counts were measured on the Perkin Elmer Microbeta scintillation counter.
DNMT Assays Used for Examples 115-120
DNMT enzymes were produced by GlaxoSmithKline. Human DNMT3b/3L was coexpressed using truncated 3b (catalytic domain) and 3L (DNA binding domain). DNMT1 was human, full-length protein. 3H-SAM was purchased from Perkin Elmer. Custon DNA oligonucleotide substrates were purchased from Integrated DNA technologies.
28-mer DNA Oligonucleotide Duplex (for DNMT3b/3L)
DNMT enzyme was preincubated with compound for 1 hr at RT, after which SAM and DNA were added to initiate the methylation reaction. The methylation reaction was quenched after 20 min upon the addition of >100 fold excess non-radioactive SAM. The quenched reaction mixture (80%) was transferred to a DEAE filter binding plate (Millipore Multiscreen HTS DE), washed with 3 volumes of 50 mM phosphate buffer and dried. Scintillation cocktail (MicroScint-20) was added to the plate and radioactivity (3H-DNA) was measured using a Perkin Elmer TopCount scintillation counter.
Final reagent concentrations (prior to quench) consisted of the following:
DNMT3b/3L (10 nM), 200 nM DNA, 200 nM 3H-SAM in 20 mM Tris (pH 8), 1 mM DTT, 1 mM EDTA, 25 mM NaCl, 1 mM CHAPS and 2% DMSO.

[3] abbreviates: at least one experimental run or average of several runs, Examples 1-114 and 115-120 use different protocols.

T1 sequence (P26358 whole entry): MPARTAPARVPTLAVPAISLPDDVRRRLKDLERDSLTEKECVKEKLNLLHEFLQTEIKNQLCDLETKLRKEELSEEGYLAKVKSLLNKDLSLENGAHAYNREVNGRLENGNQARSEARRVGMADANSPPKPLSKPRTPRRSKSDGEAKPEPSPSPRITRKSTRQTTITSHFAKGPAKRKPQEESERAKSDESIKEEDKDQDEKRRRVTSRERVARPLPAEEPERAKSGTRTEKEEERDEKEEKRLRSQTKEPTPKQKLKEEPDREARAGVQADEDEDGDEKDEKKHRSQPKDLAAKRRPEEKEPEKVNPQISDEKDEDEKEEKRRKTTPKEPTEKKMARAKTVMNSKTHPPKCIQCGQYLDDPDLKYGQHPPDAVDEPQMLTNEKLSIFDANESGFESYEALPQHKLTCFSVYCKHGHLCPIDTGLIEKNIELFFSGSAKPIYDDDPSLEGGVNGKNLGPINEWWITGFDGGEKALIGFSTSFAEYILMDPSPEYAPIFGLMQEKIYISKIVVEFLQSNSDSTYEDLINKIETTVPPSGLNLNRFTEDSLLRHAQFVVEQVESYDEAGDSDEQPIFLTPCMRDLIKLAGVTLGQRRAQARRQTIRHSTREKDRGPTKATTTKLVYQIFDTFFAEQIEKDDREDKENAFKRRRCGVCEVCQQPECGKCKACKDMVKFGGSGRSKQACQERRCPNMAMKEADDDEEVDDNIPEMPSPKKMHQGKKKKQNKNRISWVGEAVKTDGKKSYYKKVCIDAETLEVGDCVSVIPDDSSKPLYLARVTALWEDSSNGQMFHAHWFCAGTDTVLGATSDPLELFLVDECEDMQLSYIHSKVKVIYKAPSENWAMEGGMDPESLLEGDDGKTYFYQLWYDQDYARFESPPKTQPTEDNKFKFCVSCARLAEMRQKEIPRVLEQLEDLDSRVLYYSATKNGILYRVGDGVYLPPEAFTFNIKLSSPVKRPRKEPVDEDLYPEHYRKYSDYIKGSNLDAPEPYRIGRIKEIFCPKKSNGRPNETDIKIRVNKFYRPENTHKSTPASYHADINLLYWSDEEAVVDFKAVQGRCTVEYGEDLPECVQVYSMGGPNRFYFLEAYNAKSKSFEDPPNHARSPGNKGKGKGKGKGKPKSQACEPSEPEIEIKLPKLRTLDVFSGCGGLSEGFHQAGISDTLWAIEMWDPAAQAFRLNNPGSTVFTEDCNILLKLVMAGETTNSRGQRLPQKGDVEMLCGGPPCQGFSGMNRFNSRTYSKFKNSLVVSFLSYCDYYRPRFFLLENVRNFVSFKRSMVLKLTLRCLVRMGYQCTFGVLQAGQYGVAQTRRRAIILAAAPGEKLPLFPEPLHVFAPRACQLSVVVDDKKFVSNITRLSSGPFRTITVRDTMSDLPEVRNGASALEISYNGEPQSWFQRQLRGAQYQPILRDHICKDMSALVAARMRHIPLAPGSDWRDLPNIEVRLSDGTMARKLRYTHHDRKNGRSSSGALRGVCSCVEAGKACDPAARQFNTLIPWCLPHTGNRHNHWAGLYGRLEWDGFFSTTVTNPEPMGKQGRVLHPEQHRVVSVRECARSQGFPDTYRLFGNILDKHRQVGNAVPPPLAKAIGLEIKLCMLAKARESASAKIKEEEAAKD

`Nc1ccccc1CNC(=S)NCc1ccnc2[nH]ccc12` [Example 26, 1-((1H-pyrrolo[2,3-b]pyridin-4-yl)methyl)-3-(2-aminobenzyl)thiourea] had an IC50 in test [1] (setting [3]) of 19.1 to 300 µM.

For the compound `Nc1ccc([N+](=O)[O-])cc1CNC(=S)NCc1ccnc2[nH]ccc12` [Example 30, 1-((1H-pyrrolo[2,3-b]pyridin-4-yl)methyl)-3-(2-amino-5-nitrobenzyl)thiourea], the IC50 in test [1] (setting [3]) was 19.1 to 300 µM and ≤ 100 µM. On to `C=CC(=O)Nc1cc(CNC(=S)NCc2ccnc3[nH]ccc23)cc(C(F)(F)F)c1` [Example 35, N-(3-((3-((1H-pyrrolo[2,3-b]pyridin-4-yl)methyl)thioureido)methyl)-5-(trifluoromethyl)phenyl)acrylamide], for which the IC50 in test [2] (setting [3]) was at most 20 µM; in test [1] (setting [3]), 19.1 to 300 µM. `COCC#CC(=O)Nc1cccc(CNC(=S)NCc2ccnc3[nH]ccc23)c1` [Example 41, N-(3-((3-((1H-pyrrolo[2,3-b]pyridin-4-yl)methyl)thioureido)methyl)phenyl)-4-methoxybut-2-ynamide]: the IC50 in test [2] is at most 1 µM; in test [1] (read-out: IC50 against DNMT 1) it was 19.1 to 300 µM and ≤ 200 µM.

In the case of `CC#CC(=O)Nc1ccccc1CNS(=O)(=O)NCc1ccnc2[nH]ccc12` [Example 42, N-(2-(((N-((1H-pyrrolo[2,3-b]pyridin-4-yl)methyl)sulfamoyl)amino)methyl)phenyl)but-2-ynamide], the IC50 is at most 20 µM in test [2] (setting [3]) and 19.1 to 300 µM in test [1] (setting [3]).

In test [1] (setting [3]), `NC(CCCCNC(=S)NCc1ccnc2[nH]ccc12)C(=O)O` (centres unmarked) [Example 46, 6-(3-((1H-pyrrolo[2,3-b]pyridin-4-yl)methyl)thioureido)-2-aminohexanoic acid] showed an IC50 of 19.1 to 300 µM. Still for that read-out and setting: then `O=C(C#Cc1ccc(F)cc1)NCCNC(=S)NCc1ccnc2[nH]ccc12` [Example 85, N-(2-(3-((1H-pyrrolo[2,3-b]pyridin-4-yl)methyl)thioureido)ethyl)-3-(4-fluorophenyl)propiolamide], with 19.1 to 300 µM and ≤ 200 µM. `O=C(C#Cc1cccc(F)c1)NCCNC(=S)NCc1ccnc2[nH]ccc12` [Example 86, N-(2-(3-((1H-pyrrolo[2,3-b]pyridin-4-yl)methyl)thioureido)ethyl)-3-(3-fluorophenyl)propiolamide]: the IC50 in test [1] (setting [3]) is 19.1 to 300 µM and 75 µM and ≤ 100 µM. Take `O=C(C#Cc1ccc([N+](=O)[O-])cc1)NCCNC(=S)NCc1ccnc2[nH]ccc12` [Example 87, N-(2-(3-((1H-pyrrolo[2,3-b]pyridin-4-yl)methyl)thioureido)ethyl)-3-(4-nitrophenyl)propiolamide]: the IC50 is at most 1 µM in test [2] (setting [3]); 19.1 to 300 µM and ≤ 100 µM in test [1] (setting [3]). For `Cc1ccc(C#CC(=O)NCCNC(=S)NCc2ccnc3[nH]ccc23)cc1` [Example 88, N-(2-(3-((1H-pyrrolo[2,3-b]pyridin-4-yl)methyl)thioureido)ethyl)-3-(p-tolyl)propiolamide], the IC50 in test [1] (setting [3]) fell in the range of 19.1 to 300 µM.

As for `O=C(C#Cc1ccc(Cl)cc1)NCCNC(=S)NCc1ccnc2[nH]ccc12` [Example 89, N-(2-(3-((1H-pyrrolo[2,3-b]pyridin-4-yl)methyl)thioureido)ethyl)-3-(4-chlorophenyl)propiolamide], the IC50 in test [1] (setting [3]) was 19.1 to 300 µM and ≤ 200 µM. Same read-out and setting: with `COc1ccc(C#CC(=O)NCCNC(=S)NCc2ccnc3[nH]ccc23)cc1OC` [Example 92, N-(2-(3-((1H-pyrrolo[2,3-b]pyridin-4-yl)methyl)thioureido)ethyl)-3-(3,4-dimethoxyphenyl)propiolamide] the figure was 19.1 to 300 µM and ≤ 100 µM; with `O=C(C#Cc1ccc2c(c1)OCO2)NCCNC(=S)NCc1ccnc2[nH]ccc12` [Example 93, N-(2-(3-((1H-pyrrolo[2,3-b]pyridin-4-yl)methyl)thioureido)ethyl)-3-(benzo[d][1,3]dioxol-5-yl)propiolamide], 19.1 to 300 µM and ≤ 100 µM; with `C=CC(=O)Nc1ccc([N+](=O)[O-])cc1CNC(=S)NCc1ccnc2[nH]ccc12` [Example 110, N-(2-((3-((1H-Pyrrolo[2,3-b]pyridin-4-yl)methyl)thioureido)methyl)-4-nitrophenyl)acrylamide], 19.1 to 300 µM.

As for `NCC(=O)Nc1ccccc1CNC(=S)NCc1ccnc2[nH]ccc12` [Example 114, N-(2-((3-((1H-Pyrrolo[2,3-b]pyridin-4-yl)methyl)thioureido)methyl)phenyl)-2-aminoacetamide], in test [1] (setting [3]), the IC50 was 19.1 to 300 µM and ≤ 200 µM. With `S=C(NCc1ccccc1-c1cocn1)NCc1ccnc2[nH]ccc12` [Example 115, 1-((1H-pyrrolo[2,3-b]pyridin-4-yl)methyl)-3-(2-(oxazol-4-yl)benzyl)thiourea], in test [2] (setting [3]), the IC50 is at most 1 µM. `S=C(NCc1ccccc1C1CCCNC1)NCc1ccnc2[nH]ccc12` (centres unmarked) [Example 116, 1-((1H-pyrrolo[2,3-b]pyridin-4-yl)methyl)-3-(2-(piperidin-3-yl)benzyl)thiourea]: the IC50 in test [2] (setting [3]) is at most 10 µM; in test [1] (setting [3]), at most 100 µM. With `CN(C(=O)C#Cc1ccccc1)c1cccc(CNC(=S)NCc2ccnc3[nH]ccc23)c1` [Example 117, N-(3-((3-((1H-pyrrolo[2,3-b]pyridin-4-yl)methyl)thioureido)methyl)phenyl)-N-methyl-3-phenylpropiolamide], the IC50 in test [2] (setting [3]) was at most 10 µM.

With `O=C(C#CC1CCCC1)Nc1cccc(CNC(=O)NCc2ccnc3[nH]ccc23)c1` [Example 118, N-(3-((3-((1H-pyrrolo[2,3-b]pyridin-4-yl)methyl)ureido)methyl)phenyl)-3-cyclopentylpropiolamide], the IC50 in test [2] (setting [3]) was at most 1 µM. Same read-out and setting: with `O=C(NCc1ccnc2[nH]ccc12)NC1CN(C(=O)C#CC2CCCCC2)C1` [Example 119, 1-((1H-pyrrolo[2,3-b]pyridin-4-yl)methyl)-3-(1-(3-cyclohexylpropioloyl)azetidin-3-yl)urea] the figure was at most 1 µM; with `O=C(NCc1ccccc1-c1cscn1)NCc1ccnc2[nH]ccc12` [Example 120, 1-((1H-pyrrolo[2,3-b]pyridin-4-yl)methyl)-3-(2-(thiazol-4-yl)benzyl)urea], at most 1 µM.
